Read-outs that look alike come from different tables or passages of the source.
Tests used:
[1] = Stability of QC samples in plasma; design: species or system rat
Procedure: For the analytical validation of Jaspine B in plasma samples, the standard curve range was 25–5000 ng/mL and the concentrations of quality control (QC) samples were 75, 500, and 3000 ng/mL. The recovery of these spiked QC sample were in the range of 88.2–98.1%. Intra- and inter-day precision and accuracy had coefficients of variance of less than 10%. The stability of Jaspine B QC samples after 3 freeze thaw cycles were 83.9–94.4% and the short-term stability of these samples after standing for 6 h at room temperature was 94.3–100.1%.

[2] = Tissue distribution after intravenous administration; type: in vivo; details: rat
Procedure: Jaspine B was dissolved in a vehicle containing DMSO: PEG400: saline (2:4:4, v/v/v) and IV-injected via the femoral vein at a dose of 10 mg/kg (vehicle volume, 1 mL/kg). Blood samples were collected from the abdominal artery and animals were euthanized at 0.5 h and 12 h after IV dosing. The blood, brain, liver, kidney, heart, and spleen were immediately excised, gently washed with ice-cold saline, and weighed. The tissue samples were homogenized with 9 volumes of saline. Aliquots of 50 μL of tissue homogenates and plasma were stored at −80 °C until the analysis.
Aliquots (50 μL) of plasma and tissue homogenates were added to 250 μL of acetonitrile containing 0.5 ng/mL of berberine. After vortexing for 10 min and centrifugation at 13,200 rpm for 5 min, an aliquot (2 μL) of the supernatant was injected directly into the LC-MS/MS system. For the analysis of plasma and tissue concentration, the standard curves with a range of 5–1000 ng/mL in the blank plasma and 10% bank tissue homogenates from brain, liver, kidney, heart, and spleen were prepared, and the concentrations of quality control (QC) samples of respective plasma and tissue homogenates were 25 and 750 ng/mL. The recovery of these spiked QC samples were in the range of 73.6–112.2% in all tissue homogenates. Intra- and inter-day precision and accuracy had coefficients of variance of less than 15%.

SK-OV3 = system: SK-OV3; design: method as in doi:10.5352/JLS.2016.26.12.1392; details: SK-OV3 ovarian; cited from earlier work
in vitro = in vitro ADME, rat
Procedure: For the measurement of the effect of TC on the tight junction of biological membranes, the permeability of 50 μM Lucifer yellow, a marker of paracellular permeation, was measured in the presence of TC (0, 0.1, 1, 10, 100 mM). Prior to the experiment, ileal segments from SD rats (about 20 cm) were placed in the chambers and were submerged in fresh, prewarmed (37 °C) HBSS for 15 min for acclimatization. The chambers were continuously bubbled with carbogen gas (5% CO2/ 95% O2) during the experiment. The experiments began by replacing the HBSS with HBSS containing 50 μM Lucifer yellow and various concentrations of TC on the apical side (A) and adding fresh HBSS to the basal side (B). Aliquots (400 μL) of media were withdrawn from the receiver compartment (B) after 0, 20, 40, 60, and 80 min, and the volume of liquid in the receiver compartment was replenished with fresh, prewarmed HBSS after each sampling. Aliquots (200 μL) of all samples were used for the determination of Lucifer yellow concentration. The fluorescence of Lucifer yellow in the samples was measured using a fluorescence spectrophotometer (Infinite 200 PRO, Tecan, Switzerland) with excitation at 425 nm and emission at 535 nm.
A to B and B to A permeability of Jaspine B was measured in the presence of TC and rat bile. One mL of HBSS containing 50 μM Jaspine B and 10 mM TC or 20% bile was added to the donor side and 1 mL of preheated fresh HBSS was added to the receiver side. Aliquots (400 μL) of media were withdrawn at 0, 20, 40, 60, and 80 min from the receiver compartment as described above. Aliquots (50 μL) of all samples were stored at −80 °C until analysis.
Aliquots (50 μL) of all samples were added to 250 μL of acetonitrile containing 0.5 ng/mL of berberine. After vortexing for 10 min and centrifugation at 13,200 rpm for 5 min, 2 μL of the supernatant was injected directly into the LC-MS/MS system.
The apparent permeability (Papp) of the drug was calculated by dividing the initial drug transport rate (dQ/dt, pmol/min) by the initial drug concentration in the donor compartment of the insert (Co) multiplied by the surface area of the insert (A, cm^2): (3) Papp=dQ/dt×1/ACo

MDA-MB-231 = system: MDA-MB-231; design: method as in doi:10.5352/JLS.2016.26.12.1392; details: MDA-MB-231 human breast adenocarcinoma; cited from earlier work
MCF-7 = system: MCF-7; design: method as in doi:10.5352/JLS.2016.26.12.1392; details: MCF-7 breast cancer cells; cited from earlier work
[3] = system: metastatic melanoma cell growth in the lungs; design: method as in PMID 22451302; details: mice, intravenous (equivalent to 6.7 mg/kg) on 4th, 8th, 12th day, read on day 14; cited from earlier work
[4] = Sprague-Dawley (SD), brain, IV 10 mg/kg, read-out: T/P ratio, brain
[5] = Sprague-Dawley (SD), kidney, IV 10 mg/kg, read-out: T/P ratio, kidney
[6] = Sprague-Dawley (SD), liver, IV 10 mg/kg, read-out: T/P ratio, liver

stability after 3 freeze thaw cycles ([1]; plasma QC samples 75, 500, 3000 ng/mL): 83.9–94.4% | short-term stability ([1]; plasma QC samples, 6 h at room temperature): 94.3–100.1% | Kp at 0.5 h [2, 4]: 6.2 | Kp at 12 h [2, 4]: 1.8 | Kp at 0.5 h ([2]; Sprague-Dawley (SD), heart, IV 10 mg/kg, read-out: T/P ratio, heart): 14.4 | Kp at 0.5 h [2, 5]: 11.1 | Kp at 12 h [2, 5]: 4.7 | Kp at 0.5 h [2, 6]: 2.3 | Kp at 12 h [2, 6]: 1.2 | Kp at 0.5 h ([2]; Sprague-Dawley (SD), spleen, IV 10 mg/kg, read-out: T/P ratio, spleen): 18.5 | Kp at 12 h ([2]; Sprague-Dawley, brain, kidney, heart, spleen, 10 mg/kg, single IV administration, read-out: T/P ratios in brain, kidney, heart and spleen): 2 to 4 | Kp at 12 h ([2]; Sprague-Dawley, heart, IV 10 mg/kg, read-out: T/P ratio, heart): 3.2 | Kp at 12 h ([2]; Sprague-Dawley, spleen, IV 10 mg/kg, read-out: T/P ratio, spleen): 3.9 | permeability change (in vitro): increased the permeability | Papp at 80 min, 50 μM (in vitro; Sprague-Dawley, rat): 0.11 ×10⁻⁶ cm/s | increase of secretory (B to A) permeability (in vitro; Sprague-Dawley, rat, 80 min, 50 μM): approximately 5 fold
Compound: CCCCCCCCCCCCCC[C@@H]1OC[C@H](N)[C@@H]1O [Jaspine B]
IC50 (SK-OV3): 4.78 µM | IC50 (MDA-MB-231): > 100 µM | IC50 (MCF-7): 2.31 µM | metastatic melanoma cell growth in the lungs [3]: dramatically decreased

— PMC5618418, “Pharmacokinetics of Jaspine B and Enhancement of Intestinal Absorption of Jaspine B in the Presence of Bile Acid in Rats” (Marine Drugs, 2017)
